Laboratory results: patent US20250195521A1 (Revolution Medicines, Inc., priority 2020, published 2025)
Read-outs that look alike come from different tables or passages of the source.

Assays:
KRAS Q61H = KRAS Q61H (Homo sapiens (Human), UniProt P01116+P62937, Q61H); experiment: Ras-Raf disruption/FRET/MOA assay (BRAF RBD, Cyclophilin A); assay type: biochemical
Method in brief: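 TR-FRET read after 1.5 h with 10 nM anti-His Eu-W1024 and 50 nM anti-GST APC, following 3 h at 25 °C of GMPPNP-loaded His6-Ras (12.5 nM), GST-BRAF RBD (50 nM) and Cyclophilin A (25 μM) with compound from 30 μM final, 10 points, 3-fold. IC50 reported; pH 7.3 HEPES, 100 mM NaCl.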

NRAS Q61K = NRAS Q61K (Homo sapiens (Human), UniProt P01111+P62937, Q61K); experiment: as above; assay type: biochemical
Method in brief: (§1)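 TR-FRET readout: anti-His Eu-W1024 (10 nM) and anti-GST allophycocyanin (50 nM) added after 3 h, 25° C compound incubation, then 1.5 h more. Decrease in FRET ratio versus DMSO wells marks Ras:RAF disruption; IC50 reported.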

NRAS Q61R = NRAS Q61R (Homo sapiens (Human), UniProt P01111+P62937, Q61R); experiment: as above; assay type: biochemical
Method in brief: as §1

NRAS WT = NRAS WT (Homo sapiens (Human), UniProt P01111+P62937); experiment: as above; assay type: biochemical
Method in brief: as §1

[1] = tested on: K-Ras G12C (NCI-H358 cells); experiment: Potency assay: pERK in NCI-H358 cells; assay type: cell-based, human; details: Homo sapiens, read-out: pERK EC50 (H358 KRAS G12C)
Method in brief: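 Cells plated the day before were exposed for 4 h at 37° C, 5% CO2 to a 10-point, 3-fold DMSO dilution series (10 mM top stock), in duplicate. Phospho-ERK was read by AlphaLISA SureFire Ultra or by In-Cell Western with DRAQ5 DNA stain, and IC50 came from a 4-parameter sigmoidal fit.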

NCI-H358 (K-Ras G12C) = experiment: CellTiter-Glo cell viability assay, NCI-H358; assay type: cell-based, human
Method in brief: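 NCI-H358 (K-Ras G12C) cells treated with compound dispensed directly into plates. CellTiter-Glo luminescence read on day 5 after ~30 min equilibration to room temperature. Signal normalised to DMSO average ×100, then fitted with a four-parameter logistic model.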

[2] = Homo sapiens, NCI-H358, 120 h, 5-day treatment, read-out: H358 Cell Viability assay data (K-Ras G12C, IC50)
[3] = Homo sapiens, NCI-H358, 120 h, read-out: H358 Cell Viability assay data (K-Ras G12C, IC50, uM), 5-day treatment

Sequence of NRAS Q61K (P01111 whole entry Q61K): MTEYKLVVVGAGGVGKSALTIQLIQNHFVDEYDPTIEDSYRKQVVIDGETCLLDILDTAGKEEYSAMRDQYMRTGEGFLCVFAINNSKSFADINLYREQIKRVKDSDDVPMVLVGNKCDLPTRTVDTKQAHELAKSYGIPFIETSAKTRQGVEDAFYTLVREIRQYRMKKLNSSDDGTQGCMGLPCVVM
Sequence of NRAS Q61K (P62937 whole entry): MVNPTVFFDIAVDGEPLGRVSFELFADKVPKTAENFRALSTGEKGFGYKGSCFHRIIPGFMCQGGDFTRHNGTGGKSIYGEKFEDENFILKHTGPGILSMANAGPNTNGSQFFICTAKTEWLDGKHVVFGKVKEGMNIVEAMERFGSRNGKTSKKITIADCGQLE
Sequence of KRAS Q61H (P01116 other isoform, or with tags, fused parts or gaps Q61H): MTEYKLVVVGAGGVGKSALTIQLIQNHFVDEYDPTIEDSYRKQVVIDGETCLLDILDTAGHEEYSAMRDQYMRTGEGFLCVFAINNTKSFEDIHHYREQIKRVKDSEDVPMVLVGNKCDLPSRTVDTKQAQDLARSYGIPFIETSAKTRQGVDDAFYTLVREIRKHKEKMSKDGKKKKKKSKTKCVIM
Sequence of KRAS Q61H (P62937 whole entry): as the sequence (P62937 whole entry) above
Sequence of NRAS WT (P01111 whole entry): as the sequence (P01111 whole entry Q61K) above, with K61Q counted along it
Sequence of NRAS WT (P62937 whole entry): as the sequence (P62937 whole entry) above
Sequence of NRAS Q61R (P01111 whole entry Q61R): as the sequence (P01111 whole entry Q61K) above, with K61R counted along it
Sequence of NRAS Q61R (P62937 whole entry): as the sequence (P62937 whole entry) above

IC50 (KRAS Q61H) [nM] | IC50 (NRAS Q61K) [nM] | IC50 (NRAS Q61R) [nM] | IC50 (NRAS WT) [nM] | EC50 ([1]; NCI-H358 cells, 4 hours) [µM] | IC50 (NCI-H358 (K-Ras G12C); 5-day treatment, read-out: H358 Cell Viability assay data (K-Ras G12C, IC50)) [µM] | IC50 (NCI-H358 (K-Ras G12C); [2]) [µM] | Compound | EC50 ([1]; NCI-H358, 4 h) [µM] | IC50 (NCI-H358 (K-Ras G12C); [3]) [µM]
100 to 1000 | 100 to 1000 | 1000 to 10000 | 1000 to 10000 | < 5 | – | – | CCn1c(-c2cccnc2[C@H](C)OC)c2c3cc(ccc31)-c1csc(n1)C[C@H](NC(=O)[C@H](C(C)C)N1C[C@@H](c3ccccc3)CC1=O)C(=O)N1CCC[C@H](N1)C(=O)OCC(C)(C)C2 (single isomer, unassigned) [Compound A544] | – | –
100 to 1000 | 1000 to 10000 | 1000 to 10000 | 100 to 1000 | < 5 | – | – | CCn1c(-c2cccnc2[C@H](C)OC)c2c3cc(ccc31)-c1csc(n1)C[C@H](NC(=O)[C@H](C(C)C)N(C)C(=O)N1CCC[C@@H]1CN(C)C)C(=O)N1CCC[C@H](N1)C(=O)OCC(C)(C)C2 [Compound A518] | – | –
10 to 100 | – | 100 to 1000 | 100 to 1000 | < 5 | – | 0.01 to 0.1 | CCn1c(-c2cccnc2[C@H](C)OC)c2c3cc(ccc31)-c1csc(n1)C[C@H](NC(=O)[C@H](C(C)C)N(C)C(=O)N1CCC13CCS(=O)(=O)CC3)C(=O)N1CCC[C@H](N1)C(=O)OCC(C)(C)C2 [Compound A530] | – | –
10 to 100 | – | 100 to 1000 | 10 to 100 | < 5 | – | < 0.01 | CCn1c(-c2cccnc2[C@H](C)OC)c2c3cc(ccc31)-c1csc(n1)C[C@H](NC(=O)[C@H](C(C)C)N(C)C(=O)N1CC([C@H](C)COC)C1)C(=O)N1CCC[C@H](N1)C(=O)OCC(C)(C)C2 [Compound A533] | – | –
10 to 100 | – | 100 to 1000 | 10 to 100 | < 5 | – | < 0.01 | CCn1c(-c2cccnc2[C@H](C)OC)c2c3cc(ccc31)-c1csc(n1)C[C@H](NC(=O)[C@H](C(C)C)N(C)C(=O)N1CCN3C(=O)CN(C)C[C@H]3C1)C(=O)N1CCC[C@H](N1)C(=O)OCC(C)(C)C2 [Compound A537] | – | –
10 to 100 | – | 100 to 1000 | 100 to 1000 | < 5 | – | 0.01 to 0.1 | CCn1c(-c2cccnc2[C@H](C)OC)c2c3cc(ccc31)-c1csc(n1)C[C@H](NC(=O)[C@H](C(C)C)N(C)C(=O)N1CC([C@H](C)N(C)C)C1)C(=O)N1CCC[C@H](N1)C(=O)OCC(C)(C)C2 [Compound A538] | – | –
100 to 1000 | 100 to 1000 | 100 to 1000 | 100 to 1000 | < 5 | – | – | CCn1c(-c2cccnc2[C@H](C)OC)c2c3cc(ccc31)-c1csc(n1)C[C@H](NC(=O)[C@H](C(C)C)N(CCc1ccncc1)C1CC1)C(=O)N1CCC[C@H](N1)C(=O)OCC(C)(C)C2 [Compound A556] | – | –
10 to 100 | 100 to 1000 | 100 to 1000 | 100 to 1000 | < 5 | – | – | CCn1c(-c2cccnc2[C@H](C)OC)c2c3cc(ccc31)-c1csc(n1)C[C@H](NC(=O)[C@H](C(C)C)N(C)C(=O)N1CC[C@@H](F)[C@H](N)C1)C(=O)N1CCC[C@H](N1)C(=O)OCC(C)(C)C2 [Compound A559] | – | –
100 to 1000 | 100 to 1000 | 100 to 1000 | 100 to 1000 | < 5 | – | – | CCn1c(-c2cccnc2[C@H](C)OC)c2c3cc(ccc31)-c1csc(n1)C[C@H](NC(=O)[C@H](C(C)C)N(C)C(=O)[C@@H]1OCC[C@@H]1c1ccccc1)C(=O)N1CCC[C@H](N1)C(=O)OCC(C)(C)C2 [Compound A585] | – | –
10 to 100 | – | 100 to 1000 | 10 to 100 | < 5 | – | < 0.01 | CCn1c(-c2cccnc2[C@H](C)OC)c2c3cc(ccc31)-c1csc(n1)C[C@H](NC(=O)[C@H](C(C)C)N(C)C(=O)N1CCN(C(=O)[C@@H]3CCCN3C)CC1)C(=O)N1CCC[C@H](N1)C(=O)OCC(C)(C)C2 [Compound A596] | – | –

Further lines, the compound ahead of its results:

Compound | IC50 (KRAS Q61H) [nM] | IC50 (NRAS Q61K) [nM] | IC50 (NRAS Q61R) [nM] | IC50 (NRAS WT) [nM] | EC50 ([1]; NCI-H358 cells, 4 hours) [µM] | IC50 (NCI-H358 (K-Ras G12C); 5-day treatment, read-out: H358 Cell Viability assay data (K-Ras G12C, IC50)) [µM] | IC50 (NCI-H358 (K-Ras G12C); [2]) [µM] | EC50 ([1]; NCI-H358, 4 h) [µM] | IC50 (NCI-H358 (K-Ras G12C); [3]) [µM]
CCn1c(-c2cccnc2[C@H](C)OC)c2c3cc(ccc31)-c1cccc(c1)C[C@H](NC(=O)[C@H](C(C)C)N(C)C(C)=O)C(=O)N1CCC[C@H](N1)C(=O)OCC(C)(C)C2 [Compound A61] | 100 to 1000 | 1000 to 10000 | 1000 to 10000 | 1000 to 10000 | < 5 | – | – | – | –
CCn1c(-c2cccnc2[C@H](C)OC)c2c3cc(ccc31)-c1cc(O)cc(c1)C[C@H](NC(=O)C1CCC3C1C3(F)F)C(=O)N1CCC[C@H](N1)C(=O)OCC(C)(C)C2 (stereo partly drawn) [Compound A181] | 100 to 1000 | 1000 to 10000 | – | 1000 to 10000 | < 5 | 0.01 to 0.1 | < 0.01 | – | –
CCn1c(-c2cccnc2[C@H](C)OC)c2c3cc(ccc31)-c1csc(n1)C[C@H](NC(=O)[C@H](C(C)C)N(C)C(=O)[C@H]1CCN(S(C)(=O)=O)C1)C(=O)N1CCC[C@H](N1)C(=O)OCC(C)(C)C2 [Compound A237] | – | 1000 to 10000 | 1000 to 10000 | 1000 to 10000 | – | – | – | < 5 | < 0.01
CCn1c(-c2cccnc2[C@H](C)OC)c2c3cc(ccc31)-c1csc(n1)C[C@H](NC(=O)C1(F)CCC1)C(=O)N1CCC[C@H](N1)C(=O)OCC(C)(C)C2 [Compound A361] | 100 to 1000 | 100 to 1000 | 100 to 1000 | 100 to 1000 | < 5 | – | – | – | –
CCn1c(-c2cccnc2[C@H](C)OC)c2c3cc(ccc31)-c1csc(n1)C[C@H](NC(=O)C1(F)CC1)C(=O)N1CCC[C@H](N1)C(=O)OCC(C)(C)C2 [Compound A362] | 100 to 1000 | 100 to 1000 | 1000 to 10000 | 100 to 1000 | < 5 | – | – | – | –
CCn1c(-c2cc(N3CCN(C)CC3)cnc2[C@H](C)OC)c2c3cc(ccc31)-c1csc(n1)C[C@H](NC(=O)[C@H](C(C)C)N(C)C(=O)[C@H]1CCCS1(=O)=O)C(=O)N1CCC[C@H](N1)C(=O)OCC(C)(C)C2 [Compound A439] | 100 to 1000 | 100 to 1000 | 100 to 1000 | 100 to 1000 | < 5 | – | – | – | –
CCn1c(-c2cccnc2[C@H](C)OC)c2c3cc(ccc31)-c1csc(n1)C[C@H](NC(=O)[C@H](C(C)C)N(C)C(=O)N1C[C@@H]3OCCN(C)[C@@H]3C1)C(=O)N1CCC[C@H](N1)C(=O)OCC(C)(C)C2 [Compound A444] | 10 to 100 | – | 100 to 1000 | 100 to 1000 | < 5 | – | < 0.01 | – | –
CCn1c(-c2cccnc2[C@H](C)OC)c2c3cc(ccc31)-c1csc(n1)C[C@H](NC(=O)[C@H](C(C)C)N(C)C(=O)N1CCC[C@H](N(C)C)CC1)C(=O)N1CCC[C@H](N1)C(=O)OCC(C)(C)C2 [Compound A493] | 10 to 100 | – | 100 to 1000 | 10 to 100 | < 5 | – | < 0.01 | – | –
CCn1c(-c2cccnc2[C@H](C)OC)c2c3cc(ccc31)-c1csc(n1)[C@@H](OC)[C@H](NC(=O)[C@H](C(C)C)N(C)C(=O)N(C)C)C(=O)N1CCC[C@H](N1)C(=O)OCC(C)(C)C2 [Compound A598, (2S)—N-((6^3S,3S,4S,Z)-1^1-ethyl-3-methoxy-1^2-(2-((S)-1-methoxyethyl)pyridin-3-yl)-10,10-dimethyl-5,7-dioxo-6^1,6^2,6^3,6^4,6^5,6^6-hexahydro-1^1H-8-oxa-2 (4,2)-thiazola-1 (5,3)-indola-6 (1,3)-pyridazinacycloundecaphane-4-yl)-3-methyl-2-(1,3,3-trimethylureido) butanamide] | 100 to 1000 | – | 100 to 1000 | 100 to 1000 | – | – | – | < 5 | 0.01 to 0.1
